What was measured:
[1] = Effectiveness of ADPs (Example 1, Table 6; cell death assays of FIGS. 10-13); format: cell-based; conditions: ADPs with N-terminal tumor penetrating peptide and C-terminal fluorescent tag; graded in words
Text: FIGS. 10A-C show the sequences mapped, peptide blots, imaging to show expression and cell death assays for these three peptides. A) PPA-1 (PEPTIDE23) (SEQ ID NO:23), B) PPA4 (PEPTIDE19) (SEQ ID NO:19), C) PPA10 (PEPTIDE16 including FF at C-terminus) (SEQ ID NO:16).
FIGS. 11A-B show the sequences mapped, peptide blots, imaging to show expression and cell death assays for these HSP-70 peptides. A) PHA4 (PEPTIDE5) (SEQ ID NO:5), B) PHA5 (PEPTIDE13 plus C-terminal L) (SEQ IDS NO: 13).
FIGS. 12A-C show the sequences mapped, peptide blots, imaging to show expression and cell death assays for these p65 (RELA) peptides. A) PRA1 (PEPTIDE14) (SEQ ID NO:14), B) PRA8 (PEPTIDE8) (SEQ ID NO:8), C) PRA9 (SEQ ID Nos:33 and 37-45).
FIGS. 13A-D show the sequences mapped, peptide blots, imaging to show expression and cell death assays for these HSP-70 peptides. A) PAA1-1 (PEPTIDE11) (SEQ ID NO:11), B) PPA1-3 (PEPTIDE15) (SEQ ID NO:15), C) PAR1 (PEPTIDE19), D) Paint 1 (PEPTIDE7) (SEQ ID NO:7).
ADPs were first identified using Peptide SPOT analysis. Peptides were identified from AKIP1. PKAc, HSP-70 and p65 sequences. The identified ADPs were attached at the N-terminus to tumor penetrating peptide based on the CENDR rule (FIG. 9). A fluorescent tag was attached to the C-terminus for ease of visualization.
To test these ADPs, CRISPR based AKIP1 knock-out cell lines were generated in HEK 293 and glioblastoma cell lines. Further, all the isoforms of AKIP1 were reintroduced into the AKIP1 knock-out glioblastoma cell lines.

[2] = test system: cancer, cardiac and neuronal cell lines; experiment: Categorisation of active ADPs as pro-/anti-apoptotic (Example 15); conditions: criteria of Example 15
[3] = test system: U87-MG cells; experiment: Caspase-Glo 3/7 apoptotic assay; format: cell-based, human; conditions: cut-off value at 20 over scrambled control with P Value <0.05%
Description: Caspase-Glo® 3/7 assays (Promega) were performed according to the manufacturer's protocol. Briefly, 15,000-20,000 cells were seeded in a 96 well white flat bottom plate. The peptide constructs were transfected in triplicates using Lipofectamine 3000. Twenty four hour post-transfection, the cells were equilibrated at room temperature and Caspase-Glo® 3/7 reagent was dispensed into each well and the luminescent signal was measured 30-60 mins incubation at room temperature. The blank reaction was used to measure background luminescence associated with the cell culture system and Caspase-Glo® 3/7 Reagent alone. The value for the blank reaction was subtracted from experimental values to obtain the relative luminescence values (RLU). The percentage change over the Scrambled control was calculated from the mean as follows: [(Mean peptide RLU-Mean Scr RLU)/Scr RLU*100]. The P value was calculated using the Student t Test.
The efficacy of the 25 disclosed peptides to cause apoptosis in the U87-MG cells was measured using Caspase-Glo® 3/7 Assay. For each of the peptides, the percentage change over the scrambled control was tabulated and a cut-off value at 20 with a P Value of <0.05%.

[4] = test system: cancer, cardiac and neuronal cell lines; experiment: Categorisation of active ADPs as pro-/anti-apoptotic (Example 15); conditions: depending on cell type
Text: 2) improved cell viability in cardiac or neuronal cell lines and decreased viability in at least 2 cancer cell lines.

Row | Sequence | Effectiveness [1] | Pro-apoptotic (anti-angiogenic) category [2] | other results
1 | DIGNGQRKDRKKTSLGPGGSYQISEHA [PEPTIDE5] | High | Pro-apoptotic (anti-angiogenic) | –
2 | DNCLAAAALNGVDRRSLQRSAKLALEVLERAKRR [PAint] | Moderate | – | –
3 | DNCLAAAALNGVDRRSLQRSARLALEVLERAKR [PEPTIDE12] | – | – | anti-apoptotic (pro-angiogenic) category [2]: anti-apoptotic (pro-angiogenic)
4 | DWWALGVLIYEMAAGYPP [PEPTIDE17] | – | Pro-apoptotic (anti-angiogenic) | –
5 | FTDLASVONSEFQQLLNQ (FTDLASVDNSEFQQLLNQ) [PEPTIDE24] | – | – | apoptosis in U87-MG cells (in words) [3]: very low apoptosis
6 | GGSYQISEHAPEASQPAENISKDLYIEVYPGTYS [PEPTIDE7] | Low | Pro-apoptotic (anti-angiogenic) | –
7 | IMQDKLEKERNDAKNAVEEYVYEMRDKLSGEYEKFVSEDDRNSFTLKLEDTENWL [PHA 5, PEPTIDE13 without the C-terminal Y] | High | – | –
8 | IMQDKLEKERNDAKNAVEEYVYEMRDKLSGEYEKFVSEDDRNSFTLKLEDTENWLY [PEPTIDE13] | – | Pro-apoptotic (anti-angiogenic) | –
9 | KYYSSVPEEGGATHVYRYHRGESKLHM [PEPTIDE9] | High | Pro-apoptotic (anti-angiogenic) | –
10 | LNGVDRRSLQRSARLALEVLERAK [PEPTIDE11] | High | Pro-apoptotic (anti-angiogenic) | both pro and anti-apoptotic effect [4]: both pro and anti-apoptotic effect; anti-apoptotic (pro-angiogenic) category [2]: anti-apoptotic (pro-angiogenic)
11 | PLIFPAEPAQASGPYVEIIEQPKQ [PEPTIDE14] | High | Pro-apoptotic (anti-angiogenic) | –
12 | REERPPTLSASFRTMAEFMDYTSSQCG [PEPTIDE1] | – | Pro-apoptotic (anti-angiogenic) | –
13 | RKDRKKTSLGPGGSYQISEHAPEASQP [PEPTIDE2] | – | Pro-apoptotic (anti-angiogenic) | –
14 | RRAVDWHALERPKGCMGVLAREAPHLEKQPAAGPQRVLPGE [PEPTIDE3] | – | Pro-apoptotic (anti-angiogenic) | –
15 | SHFSEHTALWDRSMKEFLAKAKEDFLKK [PEPTIDE10] | – | Pro-apoptotic (anti-angiogenic) | both pro and anti-apoptotic effect [4]: both pro and anti-apoptotic effect; anti-apoptotic (pro-angiogenic) category [2]: anti-apoptotic (pro-angiogenic)
16 | STDPAVFTDLASVDNSEFQQLLNQG [PEPTIDE25] | – | – | apoptosis in U87-MG cells (in words) [3]: very low apoptosis
17 | VKKRDLEQAISQRIQTNNN [PEPTIDE18] | – | Pro-apoptotic (anti-angiogenic) | –
18 | VKKRDLEQAISQRIQTNNNPFQVPIEEQRGDYDLNAVR [PEPTIDE8] | Moderate | Pro-apoptotic (anti-angiogenic) | both pro and anti-apoptotic effect [4]: both pro and anti-apoptotic effect; anti-apoptotic (pro-angiogenic) category [2]: anti-apoptotic (pro-angiogenic)
19 | VTVGSNDLTKKTHVVAVDSGQSVDLVFPV [PEPTIDE4] | – | Pro-apoptotic (anti-angiogenic) | both pro and anti-apoptotic effect [4]: both pro and anti-apoptotic effect; anti-apoptotic (pro-angiogenic) category [2]: anti-apoptotic (pro-angiogenic)

Source: patent US11608367B2, “Peptides for angiogenic therapy” (The Regents of the University of California, priority 2018, dated 2023)
